Measurements as given in the supplement of paper PMC10307832.

Tests used:
Assay in all cases: relative viability (nuclei count vs DMSO), 5 days (fraction); higher = more cells survive
[1] = compound: CN1CCN(c2ccc3nc(-c4c(N)c5c(F)cccc5[nH]c4=O)[nH]c3c2)CC1 [Dovitinib] + CC(C)C[C@H](NC(=O)[C@H](Cc1ccccc1)NC(=O)c1cnccn1)B(O)O [Bortezomib] (partner 0.002 µM)
Method in brief: (§1)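 Medians of duplicate plates are given as relative viability. That measure is the nuclei count in treated wells divided by the count in vehicle wells. Counts were taken on 4× images of lung cancer cell lines in 1536-well plates, 5 days after pin-tool dosing the day after seeding with one drug alone or a fixed anchor-drug dose plus five library-drug doses (not always all listed) in √10 steps.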

[2] = compound: CN1CCN(c2ccc3nc(-c4c(N)c5c(F)cccc5[nH]c4=O)[nH]c3c2)CC1 [Dovitinib] + CC1(C)CCC(c2ccc(Cl)cc2)=C(CN2CCN(c3ccc(C(=O)NS(=O)(=O)c4ccc(N[C@H](CCN5CCOCC5)CSc5ccccc5)c(S(=O)(=O)C(F)(F)F)c4)cc3)CC2)C1 [Navitoclax] (partner 0.5 µM)
Method in brief: as §1

[3] = compound: CN1CCN(c2ccc3nc(-c4c(N)c5c(F)cccc5[nH]c4=O)[nH]c3c2)CC1 [Dovitinib] + Cc1nc(Nc2ncc(C(=O)Nc3c(C)cccc3Cl)s2)cc(N2CCN(CCO)CC2)n1 [Dasatinib] (partner 0.075 µM)
Method in brief: as §1

[4] = compound: CN1CCN(c2ccc3nc(-c4c(N)c5c(F)cccc5[nH]c4=O)[nH]c3c2)CC1 [Dovitinib] + CCNC(=O)c1noc(-c2cc(C(C)C)c(O)cc2O)c1-c1ccc(CN2CCOCC2)cc1 [Luminespib] (partner 0.01 µM)
Method in brief: as §1

Cell Line	relative viability ([1]; first compound 0.02 µM)	relative viability ([1]; first compound 0.06325 µM)	relative viability ([1]; first compound 0.2 µM)	relative viability ([1]; first compound 0.6325 µM)	relative viability ([1]; first compound 2 µM)	relative viability ([2]; first compound 0.02 µM)	relative viability ([2]; first compound 0.06325 µM)	relative viability ([2]; first compound 0.2 µM)	relative viability ([2]; first compound 0.6325 µM)	relative viability ([2]; first compound 2 µM)	relative viability ([3]; first compound 0.02 µM)	relative viability ([3]; first compound 0.06325 µM)	relative viability ([3]; first compound 0.2 µM)	relative viability ([3]; first compound 0.6325 µM)	relative viability ([3]; first compound 2 µM)	relative viability ([4]; first compound 0.02 µM)	relative viability ([4]; first compound 0.06325 µM)	relative viability ([4]; first compound 0.2 µM)	relative viability ([4]; first compound 0.6325 µM)	relative viability ([4]; first compound 2 µM)
NCI-H2347	1.18	0.935	0.907	1.43	1.09	0.892	0.812	0.86	0.707	0.932	0.317	0.276	0.322	0.303	0.33	0.426	0.442	0.661	0.357	0.255
NCI-H2405	0.871	0.972	1	1.08	0.969	0.897	0.836	0.86	0.807	1.32	0.201	0.222	0.174	0.204	0.235	0.657	0.579	0.7	0.58	0.817
NCI-H3122	0.984	0.977	1.03	1.05	1.01	1.05	1.03	0.954	1.02	1.07	0.721	0.857	0.914	0.832	0.749	0.0862	0.096	0.092	0.0979	0.112
PC-3 [JPC-3]	0.849	0.803	0.899	0.872	0.88	0.834	0.841	0.861	0.802	0.777	1.03	0.999	0.967	1	0.986	0.681	0.695	0.722	0.782	0.71
